Measurements from PMC13313556, “Development and characterization of triazole-based WDR5 inhibitors for the treatment of glioblastoma” (JCI Insight, 2026).

What was measured:
[1] = test system: RPS24, PYGL, CKMT1, SALL2, NID2, PYGB, RPL14 transcripts; test: RT-qPCR of WDR5-target genes in patient-derived CSCs (L0, L1, L2, DI318, 3832); format: cell-based, human; conditions: 72 hours
Experimental: Cells were harvested by centrifugation (5 minutes, 500g) into 2 mL Eppendorf Tubes and total RNA was purified on spin columns using the RNeasy Plus Kit (Qiagen, includes gDNA removal columns). In total, 2.5 μg of total RNA was treated with ezDNAse (Thermo Fisher) and then reverse transcribed with the SuperScript IV VILO RT Master Mix (Invitrogen). cDNA was diluted 1:100 in nuclease-free water and then transcripts were quantified using the PowerUp SYBR Green Master Mix (Thermo Fisher) on a QuantStudio 3 qPCR machine according to the manufacturer’s recommendations. Primer sets are provided in the Supporting Information. Raw Cq values were normalized per sample to the housekeeper ACTB and then the fold-change relative to DMSO treated cells was calculated as FC = 2^–ΔΔCq.

DI318 flank PDX tumors [2] = test: ELDA of cells dissociated from DI318 flank tumors; format: in vivo, NSG mice; conditions: 30 mg/kg once a day i.p. over 7 days
Experimental: (§1) L0 and DI318 CSCs were split with Accutase as single cells into NBMc. In total, 200 μL of CSCs were seeded into each well of a 96-well TC treated plate (n = 10 well per density) at 50, 25, 13, 6, 3, and 1.5 cells/well. […] The stem cell frequency was quantified and treatments were compared with DMSO as described by Hu and Smyth ([98]).
(1 picture or pasted object on this page, not shown here)

L0 CSCs = test: Extreme limiting dilution assay (ELDA) in L0; format: cell-based, human; conditions: 14 days
Experimental: as §1

DI318 flank PDX tumors [3] = test: DI318 flank xenograft, tumor volume; format: in vivo, NSG mice; conditions: 30 mg/kg once a day i.p. over 7 days
Experimental: (A) NOD-scid (NSG) mice were inoculated subcutaneously in the right flank with 2 × 10⁶ DI318 CSCs suspended in 100 μL of PBS:Matrigel (1:1). Over the next 6-7 days tumors developed to the point where a small mass was visual. A digital caliper measurement (length and width) were taken to get a baseline tumor size. Mice
Compounds were formulated in 20% HP β-cyclodextrin (BCD) and administered once daily via IP injection at 30 mg/kg for 7 consecutive days.
Endpoint ellipsoid tumor volume was calculated and compared using a t-test.

WDR5 = WDR5 (Homo sapiens, UniProt P61964); set-up: human WDR5 residues Ser22-Cys334 were codon optimized for E. coli; made in house; host or cells: E. coli T7 Express lysY/Iq (New England Biolabs), pET27 plasmid; conditions: read-out: direct WDR5 Ki; cited from earlier work

| SMILES | IC50 ([1]; Homo sapiens, L0 and DI318, 5 genes, read-out: average IC50 of transcriptional downregulation (qPCR)) [nM] | PYGB expression log2FC ([1]; L0, L2, DI318, 3832, 200 nM) | PYGL and CKMT1 downregulation ([1]; all 5 CSC models, 200 nM) | RPL14 expression ([1]; all 5 CSC models, 200 nM) | RPS24 downregulation ([1]; all 5 CSC models, 200 nM) | effect on stem cell frequency of treated tumors (DI318 flank PDX tumors [2]) | L0 ELDA stem cell frequency (1 in N) (L0 CSCs; 20 nM) | L0 ELDA stem cell frequency (1 in N) (L0 CSCs; 200 nM) | L0 ELDA stem cell frequency (1 in N) (L0 CSCs; 2000 nM) | effect on tumor growth (DI318 flank PDX tumors [3]) | Ki (WDR5) [nM] |
| --- | --- | --- | --- | --- | --- | --- | --- | --- | --- | --- | --- |
| COc1cc(Cn2nnc3c2CCc2c(-c4cn(C)nc4C(F)(F)F)cc(Cn4ccnc4C)cc2-3)cc(OC)c1 [C3TD078] | 80 | < 1.0 | ~ 4 fold | unaffected | ~ 2 fold | did not reduce tumor growth or affect stem cell frequency | 1.3 | 2.2 | 2.1 | did not reduce tumor growth |  |
| COc1cc(CN2CCc3c(cc(Cn4ccn(C)c4=N)cc3-c3ccc(F)cc3C)C2=O)cc(OC)c1 [C16, reference compound] |  |  |  |  |  |  |  |  |  |  | < 0.02 |
